Values of other authors as cited in US20160367580A1, “IMPROVED EXTENDED-ACTION TILMICOSIN AND USE THEREOF IN TREATMENT OF BOVINE RESPIRATORY DISEASE COMPLEX (BRD) AND IN DRY COW PERIOD” (UNIVERSIDAD NACIONAL AUTONOMA DE MEXICO, priority 2014, published 2016).

Legend:
[1] = in vivo
[2] = system: Staphylococcus aureus; details: most of Staphylococcus aureus

CC[C@H]1OC(=O)C[C@@H](O)[C@H](C)[C@@H](O[C@@H]2O[C@H](C)[C@@H](O)[C@H](N(C)C)[C@H]2O)[C@@H](CCN2C[C@H](C)C[C@H](C)C2)C[C@@H](C)C(=O)/C=C/C(C)=C/[C@@H]1CO[C@@H]1O[C@H](C)[C@@H](O)[C@@H](OC)[C@H]1OC [tilmicosin]
plasma concentration not to be exceeded (cardiotoxicity with tachycardia) [1]: ≤ 4000 ng/mL | CMI value [2]: < 1.0 µg/mL
